Data published in patent US7671065B2, “Pyridine derivatives as potassium ion channel openers” (Janssen Pharmaceutica N.V., priority 2005, dated 2010).

The molecules below were run against T1, KATP channels (Homo sapiens, UniProt O60706+Q14654) (assay: Potassium Channel Assay (FLIPR membrane potential dye, TE671 cells)). Settings: TE671 human medulloblastoma cells, room temperature, fluorescence change monitored for 3 minutes.
T1 construct: TE671 human medulloblastoma cells were obtained from ATCC; host or cells: TE671 human medulloblastoma cells
T1 sequence (Q14654 whole entry): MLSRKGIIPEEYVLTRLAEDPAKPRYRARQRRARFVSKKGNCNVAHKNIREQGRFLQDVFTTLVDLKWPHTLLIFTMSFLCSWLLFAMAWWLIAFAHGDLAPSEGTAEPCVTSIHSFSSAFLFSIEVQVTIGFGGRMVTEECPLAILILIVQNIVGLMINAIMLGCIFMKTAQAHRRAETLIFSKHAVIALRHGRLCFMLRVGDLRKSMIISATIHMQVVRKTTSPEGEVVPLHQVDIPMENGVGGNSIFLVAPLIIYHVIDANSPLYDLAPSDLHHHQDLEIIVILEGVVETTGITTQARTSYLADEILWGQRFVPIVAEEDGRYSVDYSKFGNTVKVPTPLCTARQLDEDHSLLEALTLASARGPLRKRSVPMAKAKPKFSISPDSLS
T1 sequence (O60706 1-1549 isoform O60706-2): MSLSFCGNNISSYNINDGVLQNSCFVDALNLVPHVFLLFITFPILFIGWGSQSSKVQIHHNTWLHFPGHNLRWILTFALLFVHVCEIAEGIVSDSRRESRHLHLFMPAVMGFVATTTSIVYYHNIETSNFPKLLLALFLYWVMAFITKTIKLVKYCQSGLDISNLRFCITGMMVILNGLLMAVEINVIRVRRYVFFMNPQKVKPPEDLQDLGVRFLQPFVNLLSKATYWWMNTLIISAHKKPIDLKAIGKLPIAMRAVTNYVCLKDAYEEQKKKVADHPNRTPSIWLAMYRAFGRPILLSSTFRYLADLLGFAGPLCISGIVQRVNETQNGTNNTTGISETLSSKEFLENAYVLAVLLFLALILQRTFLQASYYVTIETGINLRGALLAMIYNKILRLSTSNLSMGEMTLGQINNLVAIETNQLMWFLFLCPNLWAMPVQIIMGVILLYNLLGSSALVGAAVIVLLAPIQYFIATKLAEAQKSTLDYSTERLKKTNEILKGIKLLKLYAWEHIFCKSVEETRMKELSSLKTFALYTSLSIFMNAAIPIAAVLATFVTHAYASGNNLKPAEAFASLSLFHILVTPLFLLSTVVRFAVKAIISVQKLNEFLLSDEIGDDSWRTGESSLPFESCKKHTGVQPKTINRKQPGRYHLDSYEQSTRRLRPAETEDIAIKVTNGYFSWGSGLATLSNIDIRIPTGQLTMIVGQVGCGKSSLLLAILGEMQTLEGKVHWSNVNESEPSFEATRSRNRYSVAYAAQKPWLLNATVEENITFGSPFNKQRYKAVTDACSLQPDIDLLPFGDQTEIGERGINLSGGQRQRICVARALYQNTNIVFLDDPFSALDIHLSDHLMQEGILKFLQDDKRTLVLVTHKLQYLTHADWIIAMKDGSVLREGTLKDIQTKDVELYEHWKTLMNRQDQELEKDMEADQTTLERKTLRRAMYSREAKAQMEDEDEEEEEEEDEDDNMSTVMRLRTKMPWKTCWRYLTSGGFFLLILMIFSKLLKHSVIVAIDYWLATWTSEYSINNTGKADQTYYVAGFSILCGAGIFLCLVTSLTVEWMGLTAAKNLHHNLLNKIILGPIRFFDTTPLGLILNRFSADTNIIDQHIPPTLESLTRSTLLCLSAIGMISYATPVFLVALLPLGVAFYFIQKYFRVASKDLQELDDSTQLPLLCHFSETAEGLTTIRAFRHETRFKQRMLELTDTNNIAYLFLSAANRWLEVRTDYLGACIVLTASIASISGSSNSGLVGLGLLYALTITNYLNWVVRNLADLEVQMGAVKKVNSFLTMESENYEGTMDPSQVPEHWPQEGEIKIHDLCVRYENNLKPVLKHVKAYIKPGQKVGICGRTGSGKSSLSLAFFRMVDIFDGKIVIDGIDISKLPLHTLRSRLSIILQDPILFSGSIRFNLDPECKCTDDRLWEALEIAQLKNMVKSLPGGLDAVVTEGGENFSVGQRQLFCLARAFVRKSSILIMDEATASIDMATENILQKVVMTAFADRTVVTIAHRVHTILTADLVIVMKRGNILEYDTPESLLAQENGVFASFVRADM
Assay type: cell-based
Description: TE671 human medulloblastoma cells were obtained from ATCC and grown in Dulbecco's modified Eagle's medium (DMEM) supplemented with 10% fetal bovine serum, 100 U/ml penicillin and 100 U/ml streptomycine.
The day before testing, the cells were plated in black 96-well plates at 50K/well. On the day of testing, the growth media was removed, then 100 μl of FLIPR buffer (20 mM HEPES, 120 mM NaCl, 2 mM KCl, 2 mM CaCl2, 1 mM MgCl2, 5 mM Glucose) and 100 μl of Membrane Potential Assay Dye (Molecular Devices) dissolved in FLIPR buffer were added to each well. The cells were incubated at room temperature for 15 to 30 min.
The effect of test compounds on KATP channels were evaluated on a fluorometric imaging plate reader (FLIPR, Molecular Devices) at room temperature. After a baseline period, 50 μl of 5× stock solution of test compound prepared in FLIPR buffer was added and fluorescence change was monitored for 3 minutes. After this reading, glyburide, a KATP channel blocker, was added to a final concentration of 5 μM to check the specificity of the test compound as a KATP channel opener. Hyperpolarization resulting from KATP channel opening was observed as a decrease in fluorescence intensity.
Representative compounds of the present invention were tested according to the procedure described above, with results as listed in Table 7 below.
Molecule `N#Cc1cccc(-c2ccncc2C(O)c2ccc(F)cc2)c1` (stereo not shown) [Compound 20, 3-{3-[(4-Fluoro-phenyl)-hydroxy-methyl]-pyridin-4-yl}-benzonitrile] has an EC50 of 19.4 µM. `CC(C)(C)c1ccc(C(O)c2cnccc2-c2cccc(C#N)c2)cc1` (stereo not shown) [Compound 27, 3-{3-[(4-tert-Butyl-phenyl)-hydroxy-methyl]-pyridin-4-yl}-benzonitrile] showed an EC50 of 10.7 µM. `CCOC(=O)c1cnc2cc(C(F)(F)F)ccc2c1OS(=O)(=O)C(F)(F)F` [Compound 15, 4-Trifluoromethanesulfonyloxy-7-trifluoromethyl-quinoline-3-carboxylic acid ethyl ester] was tested, and the EC50 was 6.27 µM. Molecule `COc1ccc(C(O)c2cnccc2-c2cccc(C#N)c2)cc1F` (stereo not shown) [Compound 37, 3-{3-[(3-Fluoro-4-methoxy-phenyl)-hydroxy-methyl]-pyridin-4-yl}-benzonitrile] has an EC50 of 9.59 µM. With `O=C(c1ccccc1)c1ccncc1C(O)c1ccccc1` (stereo not shown) [Compound 43, [3-(Hydroxy-phenyl-methyl)-pyridin-4-yl]-phenyl-methanone] the EC50 was 17.4 µM. `N#Cc1cccc(-c2ccncc2C(O)c2ccccc2)c1` (stereo not shown) [Compound 19, 3-[3-(Hydroxy-phenyl-methyl)-pyridin-4-yl]-benzonitrile] showed an EC50 of 9.63 µM. `CCOC(=O)c1cnc2cc(C(F)(F)F)ccc2c1-c1cc(C=O)ccc1OC` [Compound 9, 4-(5-Formyl-2-methoxy-phenyl)-7-trifluoromethyl-quinoline-3-carboxylic acid ethyl ester] gave an EC50 of 7.73 µM. `O=C(c1ccccc1)c1ccncc1C(O)c1cccc(F)c1` (stereo not shown) [Compound 47, {3-[(3-Fluoro-phenyl)-hydroxy-methyl]-pyridin-4-yl}-phenyl-methanone] gave an EC50 of 5.09 µM. `CCOC(=O)c1cnc2cc(C(F)(F)F)ccc2c1-c1cc(C(F)(F)F)cc(C(F)(F)F)c1` [Compound 3, 4-(3,5-Bis-trifluoromethyl-phenyl)-7-trifluoromethyl-quinoline-3-carboxylic acid ethyl ester] was tested, and the “% Stimulation” value was 19% and the EC50 was over 30 µM. `CCOC(=O)c1cnc2cc(C(F)(F)F)ccc2c1-c1cc(C)cc(OC)c1` [Compound 2, 4-(3-Methoxy-5-methyl-phenyl)-7-trifluoromethyl-quinoline-3-carboxylic acid ethyl ester] was tested, and the “% Stimulation” value was 23% and the EC50 was over 30 µM. `N#Cc1cccc(-c2ccncc2C(O)c2cc(Cl)cc(Cl)c2)c1` (stereo not shown) [Compound 25, 3-{3-[(3,5-Dichloro-phenyl)-hydroxy-methyl]-pyridin-4-yl}benzonitrile] showed an EC50 of 9.82 µM. For `CCOC(=O)c1ccc(-c2c(C(=O)OCC)cnc3cc(C(F)(F)F)ccc23)cc1` [Compound 4, 4-(4-Ethoxycarbonyl-phenyl)-7-trifluoromethyl-quinoline-3-carboxylic acid ethyl ester], the “% Stimulation” value was 38% and the EC50 was over 30 µM. With `CCOC(=O)c1cnc2cc(C(F)(F)F)ccc2c1-c1cccc(C#N)c1` [Compound 1, 4-(3-Cyano-phenyl)-7-trifluoromethyl-quinoline-3-carboxylic acid ethyl ester] the “% Stimulation” value was 36% and the EC50 was over 30 µM. In the case of `CCOC(=O)c1cnc2cc(C(F)(F)F)ccc2c1-c1ccccc1` [Compound 6, 4-Phenyl-7-trifluoromethyl-quinoline-3-carboxylic acid ethyl ester], the “% Stimulation” value is reported as 42% and the EC50 is reported as over 30 µM. `COc1ccc(C(O)c2cnccc2-c2cccc(C#N)c2)cc1` (stereo not shown) [Compound 30, 3-{3-[Hydroxy-(4-methoxy-phenyl)-methyl]-pyridin-4-yl}-benzonitrile] was tested, and the “% Stimulation” value was 7% and the EC50 was over 30 µM. In the case of `CCOC(=O)c1cnc2cc(C(F)(F)F)ccc2c1-c1cccc(C(C)=O)c1` [Compound 7, 4-(3-Acetyl-phenyl)-7-trifluoromethyl-quinoline-3-carboxylic acid ethyl ester], the “% Stimulation” value is reported as 2% and the EC50 is reported as over 30 µM. `Cc1ccc(C(O)c2cnccc2-c2cccc(C#N)c2)cc1` (stereo not shown) [Compound 32, 3-{3-[Hydroxy-(4-methyl-phenyl)-methyl]-pyridin-4-yl}-benzonitrile] showed an EC50 of 8.48 µM. With `COc1ccc(CO)cc1-c1ccncc1CO` [Compound 58] the “% Stimulation” value was 14% and the EC50 was over 30 µM. With `Cc1cc(C)c(C(O)c2cnccc2-c2cccc(C#N)c2)c(C)c1` (stereo not shown) [Compound 35, 3-{3-[Hydroxy-(2,4,6-trimethyl-phenyl)-methyl]-pyridin-4-yl}-benzonitrile] the “% Stimulation” value was 37% and the EC50 was over 30 µM. `Cc1ccc(F)cc1C(O)c1cnccc1-c1cccc(C#N)c1` (stereo not shown) [Compound 38, 3-{3-[(5-Fluoro-2-methyl-phenyl)-hydroxy-methyl]-pyridin-4-yl}-benzonitrile] was tested, and the “% Stimulation” value was 63% and the EC50 was over 30 µM. In the case of `N#Cc1cccc(-c2ccncc2C(O)C(F)(F)F)c1` (stereo not shown) [Compound 39, 3-[3-(2,2,2-Trifluoro-1-hydroxy-ethyl)-pyridin-4-yl]-benzonitrile], the EC50 is reported as 10.5 µM. In the case of `N#Cc1cccc(-c2ccncc2CO)c1` [Compound 50, 3-(3-Hydroxymethyl-pyridin-4-yl)-benzonitrile], the “% Stimulation” value is reported as 19% and the EC50 is reported as over 30 µM. `OCc1cnccc1C(O)c1ccccc1` (stereo not shown) [Compound 56, (3-Hydroxymethyl-pyridin-4-yl)-phenyl-methanol] was tested, and the “% Stimulation” value was 33% and the EC50 was over 30 µM. Work on `CC(O)c1cnccc1-c1cccc(C#N)c1` (stereo not shown) [Compound 52, 3-[3-(1-Hydroxy-ethyl)-pyridin-4-yl]-benzonitrile] yielded an EC50 of 17.2 µM. With `N#Cc1cccc(-c2ccncc2C(O)c2cccc(F)c2)c1` (stereo not shown) [Compound 21, 3-{3-[(3-Fluoro-phenyl)-hydroxy-methyl]-pyridin-4-yl}-benzonitrile] the EC50 was 23.2 µM. For `OC1OC(c2ccccc2)c2ccncc21` (stereo not shown) [Compound 65, 1-Phenyl-1,3-dihydro-furo[3,4-c]pyridin-3-ol], the “% Stimulation” value was 34% and the EC50 was over 30 µM. For `CCOC(=O)c1cnc2cc(C(F)(F)F)ccc2c1-c1cccc(CO)c1` [Compound 12, 4-(3-Hydroxymethyl-phenyl)-7-trifluoromethyl-quinoline-3-carboxylic acid ethyl ester], the “% Stimulation” value was 20% and the EC50 was over 30 µM. For `CCOC(=O)c1cnc2cc(C(F)(F)F)ccc2c1-c1cccc(C(F)(F)F)c1` [Compound 10, 7-Trifluoromethyl-4-(3-trifluoromethyl-phenyl)-quinoline-3-carboxylic acid ethyl ester], the “% Stimulation” value was 22% and the EC50 was over 30 µM. In the case of `COc1ccc(C(O)c2cnccc2C(=O)c2ccccc2)cc1F` (stereo not shown) [Compound 45, {3-[(3-Fluoro-4-methoxy-phenyl)-hydroxy-methyl]-pyridin-4-yl}-phenyl-methanone], the EC50 is reported as 11.6 µM. `CCOC(=O)c1cnc2cc(C(F)(F)F)ccc2c1-c1ccc(C)c(C)c1` [Compound 13, 4-(3,4-Dimethyl-phenyl)-7-trifluoromethyl-quinoline-3-carboxylic acid ethyl ester] was tested, and the “% Stimulation” value was 0% and the EC50 was over 30 µM. For `N#Cc1cccc(C(O)c2ccncc2CO)c1` (stereo not shown) [Compound 57, 3-[Hydroxy-(3-hydroxymethyl-pyridin-4-yl)-methyl]-benzonitrile], the “% Stimulation” value was 16% and the EC50 was over 30 µM. Molecule `Cc1ccc(C(O)c2cnccc2-c2cccc(C#N)c2)cc1F` (stereo not shown) [Compound 22, 3-{3-[(3-Fluoro-4-methyl-phenyl)-hydroxy-methyl]-pyridin-4-yl}-benzonitrile] has an EC50 of 15.1 µM. `CC(O)c1cnccc1C(=O)c1ccccc1` (stereo not shown) [Compound 59, [3-(1-Hydroxy-ethyl)-pyridin-4-yl]-phenyl-methanone] showed an EC50 of 26.8 µM. For `CN(C)c1ccc(C(O)c2cnccc2C(=O)c2ccccc2)cc1` (stereo not shown) [Compound 44, {3-[(4-Dimethylamino-phenyl)-hydroxy-methyl]-pyridin-4-yl}-phenyl-methanone], the EC50 was 17.4 µM. For `N#Cc1cccc(C2OC(O)c3cnccc32)c1` (stereo not shown) [Compound 55, 3-(3-Hydroxy-1,3-dihydro-furor[3,4-c]pyridin-1-yl)-benzonitrile], the “% Stimulation” value was 24% and the EC50 was over 30 µM. With `CCOC(=O)c1cnc2cc(C(F)(F)F)ccc2c1-c1cccc(C=O)c1` [Compound 11, 4-(3-Formyl-phenyl)-7-trifluoromethyl-quinoline-3-carboxylic acid ethyl ester] the “% Stimulation” value was 2% and the EC50 was over 30 µM. Work on `CSc1ccc(C(O)c2cnccc2-c2cccc(C#N)c2)cc1` (stereo not shown) [Compound 34, 3-{3-[Hydroxy-(4-methylsulfanyl-phenyl)-methyl]-pyridin-4-yl}-benzonitrile] yielded an EC50 of 20.8 µM. `CC(C)C(O)c1cnccc1Br` (stereo not shown) [Compound 63, 1-(4-Bromo-pyridin-3-yl)-2-methyl-propan-1-ol] gave an EC50 of 7.97 µM. For `CCOC(=O)c1cnc2cc(C(F)(F)F)ccc2c1-c1ccc(-c2ccccc2)cc1` [Compound 5, 4-Biphenyl-4-yl-7-trifluoromethyl-quinoline-3-carboxylic acid ethyl ester], the “% Stimulation” value was 33% and the EC50 was over 30 µM. Work on `N#Cc1cccc(C(=O)c2ccncc2C(O)c2ccccc2)c1` (stereo not shown) [Compound 48, 3-[3-(Hydroxy-phenyl-methyl)-pyridine-4-carbonyl]-benzonitrile] yielded an EC50 of 14.3 µM. `CCOC(=O)c1cnc2cc(C(F)(F)F)ccc2c1-c1cc(CO)ccc1OC` [Compound 14, 4-(5-Hydroxymethyl-2-methoxy-phenyl)-7-trifluoromethyl-quinoline-3-carboxylic acid ethyl ester] showed an EC50 of 4.56 µM.
